Data as given in patent US20230172919A1, “AN INSULIN SENSITIZER FOR USE IN THE PREVENTION AND/OR TREATMENT OF THE DAMAGES CAUSED BY RETINAL DETACHMENT” (SORBONNE UNIVERSITE, priority 2020, published 2023).

Key:
[1] = test system: PNA+CAR+ cones of C57BL/6J retinal explants; assay: Retinal explants culture, cone quantification; type: cell-based, mouse (C57BL/6J); settings: 5-day retinal explants
Protocol: C57BL/6J retina were prepared and placed on polycarbonate filters floating on Dulbecco’s modified Eagle’s medium (DMEM, Thermo Fisher Scientific) with the photoreceptors facing down. For the experiment, retinal explants were cultured in high glucose (25 mM) DMEM alone or supplemented with human insulin (Umuline NPH), human insulin and insulin receptor inhibitor (Hydroxy-2-naphthalenylmethylphosphonic acid (HNMPA), Abcam) or vehicle (DMSO) at 37° C. […] For this reason, HNMPA was used at a concentration 10-fold higher than the IC50 (1 mM). Each culture medium was renewed every 36 hours and after 5 days, the retinal explants were carefully removed. Immunohistochemistry and cones quantification were then performed as described for retina below.
Eyes were enucleated, fixed in 4% paraformaldehyde for 1 hour at room temperature and sectioned at the limbus; the cornea and lens were discarded. […] The retinas were flat mounted and viewed with a fluorescence microscope (DM5500, Leica). […] Each cell population was manually counted in a masked fashion. IBA-1+ cells were quantified on flat mounts on the outer segment side of the detached retina while PNA+ cone arrestin+ cells were counted on confocal microscopy Z-stacks using ImageJ software.

[2] = test system: RD-induced cone loss and subretinal IBA-1+ MPs in C57BL/6J mice; assay: Mouse model of RD (retinal detachment), retinal flat mount quantification; type: in vivo, mouse (C57BL/6J); settings: for number of PNA+CAR+ cones (cone survival) / numbers of subretinal IBA1+ MPs: day 7 after RD, subretinal injection in diluted sodium hyaluronate (insulin 2 IU/ml, IGF-1 200 ng/ml, metformin 50 mg/ml), compared to PBS controls
Protocol: Wild-type (C57BL/6J) mice were purchased from Janvier Labs at the age of 8 weeks. Mice were housed in the animal facility under specific pathogen-free condition, in a 12 h/12 h light/dark (100-500 lux) cycle with water and normal diet food available ad libitum. All experimental protocols and procedures were approved by the local animal care ethics committee (N°APAFIS#5201-20160427103344).
RD was induced with a previously described method (Nakazawa et al., 2006, 2007a, 2011). Briefly, mice were anesthetized with an intraperitoneal injection of xylazine hydrochloride (10 mg/kg) and ketamine hydrochloride (100 mg/kg) and pupils were dilated with topical phenylephrine (5%) and tropicamide (0.5%). A 30-gauge needle was first used to create two sclerotomies 1.5 mm posterior to the limbus. A glass needle (with a […] manually beveled tip) connected to a Hamilton syringe filled with diluted sodium hyaluronate (Healon GV®, Alcon) was then introduced into the vitreous cavity through one of the sclerotomy. The tip of the needle was finally inserted into the subretinal space through a peripheral retinotomy and 4 µl of diluted sodium hyaluronate containing or not recombinant human TSP-1 (100 µg/ml, Biotechne), human insulin (2 IU/ml, Umuline NPH), recombinant IGF-1 (200 ng/ml, Biotechne) or metformin (50 mg/ml), was gently injected, detaching approximately two-third of the retina from the underlying RPE.
For treatment with rosiglitazone, mice received intraperitoneal injections of 10 mg/kg rosiglitazone or vehicle (5% DMSO) 3 days before and 4 to 7 days after RD induction.
Eyes with subretinal hemorrhage were excluded from analysis. Mice were sacrificed from 1 to 10 days following RD, according to the experiment.
Eyes were enucleated, fixed in 4% paraformaldehyde for 1 hour at room temperature and sectioned at the limbus; the cornea and lens were discarded. The retinas were peeled from the RPE/choroid/sclera and incubated overnight at 4° C. in PBS-1% triton with the following primary antibodies: peanut agglutinin Alexa fluor® 594 (Thermo Fisher Scientific; 1/100), rabbit polyclonal anti-human cone arrestin antibody (LUMIF-hCAR; 1:10000) and goat polyclonal anti-IBA1 (1/100). After few washes, the retinas were incubated for 2 hours at room temperature with appropriate Alexa Fluor® conjugated secondary antibodies (Thermo Fisher Scientific; 1:500) in PBS-1% triton and nuclei were counterstained with Hoechst (1:1000, Sigma Aldrich). The retinas were flat mounted and viewed with a fluorescence microscope (DM5500, Leica). Images centered on the area with the lowest number of PNA+ cone arrestin+ cells were captured with a confocal laser-scanning microscope (FV1000, Olympus) using a 40X lens. Each cell population was manually counted in a masked fashion. IBA-1+ cells were quantified on flat mounts on the outer segment side of the detached retina while PNA+ cone arrestin+ cells were counted on confocal microscopy Z-stacks using ImageJ software.

O=P(O)(O)C(O)c1ccc2ccccc2c1 (stereo not drawn) [HNMPA, Hydroxy-2-naphthalenylmethylphosphonic acid, reference compound]
PNA+CAR+ cones after addition of insulin receptor inhibitor ([1]; high glucose DMEM with human insulin, HNMPA 1 mM, versus vehicle (DMSO)): severe loss

CN(CCOc1ccc(CC2SC(=O)NC2=O)cc1)c1ccccn1 (stereo not drawn) [rosiglitazone, reference compound]
number of infiltration of subretinal IBA-1+ MPs ([2]; day 7 of RD, daily intraperitoneal 10 mg/kg from 3 days before and throughout RD, versus vehicle (DMSO 5%)): no effect

CN(C)C(=N)N=C(N)N [metformin, reference compound]
number of PNA+CAR+ cones (cone survival) [2]: increased | numbers of subretinal IBA1+ MPs [2]: significantly decreased

IGF-1: recombinant IGF-1 (Biotechne), insulin-like growth factor
number of PNA+CAR+ cones (cone survival) [2]: no effect | numbers of subretinal IBA1+ MPs [2]: no effect

insulin: human insulin (Umuline NPH)
number of PNA+CAR+ cones (cone survival) [2]: very significantly increased | numbers of subretinal IBA1+ MPs [2]: did not alter | cone survival (PNA+CAR+ cones) ([1]; high glucose (25 mM) DMEM, human insulin 5 mIU/ml, compared to the control condition): significantly increased
